Laboratory results reported in article PMC10570359, “Dietary supplementation of cystinotic mice by lysine inhibits the megalin pathway and decreases kidney cystine content” (Scientific Reports, 2023).

Experiments:
megalin pathway = test: LMW proteinuria / albuminuria in Ctns KO mice under 5x-dAA diets
Procedure: After 24-h adaptation in metabolic cages, urine was collected during the following 24 h in presence of 0.1% sodium azide and 1x-protease inhibitors (Thermo Scientific). When in metabolic cages, mice had free access to tap water and food. Blood was collected 2 days before starting the treatments and entry into metabolic cages (baseline) and at the sacrifice to obtain serum. Body weight was recorded before entering the metabolic cages. Urine and serum analyses were performed by the veterinary laboratory Appialab Srl (Rome, Italy). Urinary levels of CC16 were measured by the Mouse Clara Cell Protein 16 kit 96 T #EKU03200 (Biomatik) according to manufacturer’s instructions. Serum levels of cystatin-C were measured by the Mouse/Rat Cystatin C Quantitative ELISA #MSCTC0 (R&D Systems). […] Creatinine clearance was normalized by mouse body weight.

Ctns KO mice kidneys = test: Kidney cystine content in Ctns KO mice; type: in vivo; conditions: for mean kidney cystine at 8 months-of-age: Ctns KO female mice, diet from 6-to-8 months-of-age; for kidney cystine as percentage of mean control diet, pooled for 8 and 12 months-of-age: 2 and 6 months of treatment
Procedure: For this pilot study, we selected tissue accumulation of cystine as a clear and measurable outcome to quantify long-term interference of dAAs with the endocytic supply of disulfide-rich plasma proteins to kidney PTCs.
Mice were euthanized by cabon dioxide (CO2) inhalation. Dissected tissues were homogenized in 10 mM N-ethylmaleimide. Protein fraction was obtained after precipitation in 10% 5-sulfosalicylic acid and centrifugation at 20,000g for 20 min at 4 °C. Protein pellet was resuspended in 100 mM NaOH and assayed by the Bio-Rad Protein Assay according to manufacturer’s instructions. Supernatant (50 μl) was mixed with 50 μL of the internal standard solution (Cystine d6) and vortexed for 5 s; then the mixture was extracted with 200 μl of acetonitrile, vortexed for at least 30 s, then centrifuged at 13,000 rpm for 9 min. Liquid chromatography and mass spectrometry analysis was performed by a UHPLC Agilent 1290 Infinity II 6470 (Agilent Technologies) equipped with an ESI-JET-STREAM source operating in the positive ion (ESI +) mode. Equipment was controlled and data were analyzed using MassHunter Workstation (Agilent Technologies). The separation column was InfinityLab Poroshell 120 HILIC 1.9 μm 100 × 2.1 mm (Agilent Technologies). Validation of the method was performed basing on the US Food and Drug Administration (FDA) guideline for industry bioanalytical method validation (FDA 2013) and European Medicines Agency (EMA) guideline (EMA 2011). The assay was validated for selectivity, specificity, linearity and limit of quantification, accuracy and precision, matrix effects and recovery, and stability.

NaPi-IIa and SGLT-2 = NaPi-IIa and SGLT-2 mRNA levels in Ctns KO mice kidneys; type: in vivo; conditions: Ctns KO mice kidneys at 8 months of age, fold-change viz control diet
Procedure: At cellular level, we assessed PT cell death linked to compensatory renewal, by measuring Ki-67 immunolabelling abundance, a validated proliferation index (Fig. 6a)[22]. […] At subcellular level, NaPi-IIa and SGLT-2 mRNA levels were measured as apical differentiation markers (Fig. 6b,c).
Figure 6 Effects of diets on selected PTC indices in Ctns KO mice kidneys at 8 months of age. (a) Proliferative events in PTCs were identified by Ki-67 immunolabelling in confocal images and scored over random fields to cumulative areas of 0.96 mm^2. […] For representative confocal images and proliferation events in all cortical compartments, see Supplemental Fig. 6. (b,c) Apical differentiation state. Expression levels of NaPi-IIa and SGLT-2 as representative apical PT transporters were calculated as ratios to the housekeeping gene, HPRT1, and presented as fold-change viz control diet.

megalin = test: Confocal imaging of megalin localization in kidney proximal tubular cells of WT mice; type: in vivo; conditions: WT female mice, two weeks diet, kidney cortex
Excerpt: Glom, glomerulus (no detectable megalin signal).

[1] = test system: kidney proximal tubular cells; test: Triple fluorescence of lysosomes and endogenous albumin in PTCs of Ctns KO mice (2-to-6 months diet); type: in vivo; conditions: Ctns KO female mice, diet from 2-to-6 months-of-age
Procedure: For in vivo endocytic tracing in PTCs, Texas Red-ovalbumin (300 µg, Invitrogen #O23021) was injected intravenously at 20 min before sacrifice. For immunofluorescence, antigen retrieval was promoted in citrate buffer, pH 6, at 95 °C for 20 min using a Lab Vision Pretreatment Module™ (Thermo Scientific). Tissue was permeabilized with PBS/0.3% Triton-X100 for 5 min, then for one further hour with 10% bovine serum albumin (BSA)/3% milk to block non-specific sites. Sections were incubated overnight at 4 °C with the following primary reagents in blocking buffer: sheep anti-megalin (1/800, kindly provided by Drs P. Verroust and R. Kozyraki, INSERM U968, Paris, F-75012, FR), rat anti-LAMP-1 (1/100; #1D4B, Hybridoma Bank), mouse anti-ezrin (1/100, #MS-661-P1, ThermoScientific), mouse anti-Ki67 (1/250, #556003, BD-Pharmingen), rabbit anti-human albumin (1/1000; Dako #A0001). After washing, sections were further incubated with the appropriate AlexaFluor-secondary antibodies for 1 h at room temperature in 10% BSA/0.3% Triton-X100 and mounted with Faramount aqueous mounting medium (Dako). Sections were imaged on a spinning disk confocal microscope using EC Plan-NeoFluar 40X/1.3 or 100x/1.4 Oil DIC objective (Cell Observer Spinning Disk; Zeiss). Proliferative events in kidney cortex were quantified as described. Alternatively, whole kidney images were acquired using a Pannoramic 250 Flash III microscope (3DHistech). Histological PAS staining and quantification of the frequency of swan-neck lesions were performed as described. Sirius Red staining of paraffine sections and morphometry in total sagittal kidney sections after conversion to red fluorescence were performed as described[53],[54]. […]
Supplemental Figure 3. […]
not detected within PT lysosomes of dAA-treated mice under identical immunolabeling /imaging conditions, indicating impaired endocytosis and/or […] degradation upon dbAA supplementation. […]

[2] = Ctns KO mice at 8 months of age, 2 months of treatment, urine, mean ± SEM

Compound	increase of microalbuminuria vs control diet (megalin pathway; Ctns KO female mice, diet from 6-to-8 months of age)	Urine CC16/creatinine (megalin pathway; [2])	Urine microalbumin/creatinine (megalin pathway; [2])	mean kidney cystine at 8 months-of-age (Ctns KO mice kidneys)	kidney cystine as percentage of mean control diet, pooled for 8 and 12 months-of-age (Ctns KO mice kidneys; Ctns KO mice)	cumulative decrease of kidney cystine accumulation (Ctns KO mice kidneys; Ctns KO mice, two-months treatment from 6-to-8 months of age)	NaPi-IIa and SGLT-2 mRNA levels (apical differentiation markers) (NaPi-IIa and SGLT-2)	subcellular localization of megalin in PTCs (megalin)	endogenous albumin signal in PTC lysosomes [1]	lysosomal enlargement/deformation in PTCs [1]
NCCCC[C@H](N)C(=O)O [5x-L-lysine, L-lysine]	no detectable increase	4314 ± 540.3 µg/g	0.1 ± 0.0 mg/g	83.6 ± 38.7 nmol hemi-cystine/mg kidney protein	significantly lower than control	~ twofold	significant yet limited benefit	no relocation	disappearance of albumin signal	prevent lysosomal enlargement and distorsion
N=C(N)NCCC[C@H](N)C(=O)O [5x-L-arginine, L-arginine]	–	3151 ± 556.1 µg/g	–	90.0 ± 32.3 nmol hemi-cystine/mg kidney protein	without reaching statistical significance	–	failed to protect	no relocation	–	prevent lysosomal enlargement and distorsion
